According to patent publication US9029080B2, “Screening assay for insecticides” (priority 2008, dated 2015):
Read-outs that look alike come from different tables or passages of the source.

Columns and labels:
[1] = target: SK2 channel (Homo sapiens, UniProt Q9H2S1); conditions: patch clamp; cited from earlier work
[2] = target: T1, octopamine receptor (OctR, CG6919 dmOa2) (Drosophila melanogaster, UniProt Q9VCZ3); assay: OctR clone 55 FLIPR Fluo-4 calcium assay; assay type: cell-based; conditions: clone 55, same as published cAMP data
T1 construct: expressed in transfected cells; host or cells: CHO stably expressing G-alpha-16
Description: FIG. 62. Cells were plated at 10K/well in 384 well plates and allowed to incubate overnight at […]. The cells were assayed 18-24 hours after seeding. Media was removed and cells were dye loaded for 60 minutes with 2 μM Fluo-4. After 1 hour, dye was removed and 20 μl of buffer added to the plate and placed into FLIPR. The 1st addition was antagonist dose response curves and the 2nd addition was agonist dose response curves. Antagonists were challenged with 100 nM Octopamine. In addition, these compounds were tested in the parental cell line CHO-Galpha16.
Cells were plated at 10,000 cells/well in 50 μl into 384-well black TC plates and allowed to incubate overnight at 37° C./5% CO2. The cells were assayed 18-24 hours after seeding. Culture medium was removed by flicking and cells were dye loaded for 60 minutes with 20 μl of 2 μM Fluo-4 in assay buffer plus probenecid at 25° C. After one hour dye was removed by flicking and 20 μL of assay buffer was added, wait 5 min prior to placing into the FLIPR and run using a two-addition protocol. The first addition (20 ul, 2×) was 0.5% DMSO final in assay buffer. The second addition (20 ul, 3×) was either assay buffer or 100 nM octopamine final.

[3] = target: T2, ShaI_delN (Drosophila melanogaster, UniProt P17971); assay: ShaI_delN clonal lines, FLIPR blue membrane potential dye, KCl depolarization; assay type: cell-based; conditions: both the ShaI_delN clonal lines and the control pcDNA3 cell line, FLIPR
T2 construct: expressed in transfected cells; host or cells: CHO
Description: ShaI_DelN C10 and C15 were tested for function on the FLIPR using the Molecular Devices blue membrane potential dye. The cells were seeded at 60K cells/well in 96-well Costar plates in complete media and assayed for function at 24 hrs. Depolarization with 15-60 mM KCl caused a 2-2.8 fold higher activity in the clonal line than the pcDNA control cell line (FIG. 5). Clone 10 had slightly higher activity than clone 15.
FIG. 5: ShaI_DelN clones tested on FLIPR with KCl depolarization. We also tested some known K-channel blockers on channel activity on the FLIPR (FIG. 6). […] The ShaI_delN clonal cell lines lost their GFP expression and assay window with cell passage. At passage 12, only 10-15% of the cell population was GFP positive.
The effects of barium (Ba2+) on ShaI_delN function were tested. Barium is known to inhibit some open rectifier and inward rectifier K-channel activities. Cells were dye loaded in the presence of BaCl2 for 1 hr at RT and assayed on the FLIPR using KCl depolarization for channel activation.

[4] = target: T3, Shaker channel plus H-kvβ A subunit (Drosophila melanogaster, UniProt P08510, INS512V); assay type: cell-based
T3 construct: expressed in transfected cells; host or cells: CHO-K1
Description: In order to detect the membrane depolarization elicited by KCl injection, the Membrane Potential sensitive dye was used both for FLIPR384 and […] experiments. Cells were analyzed in 384 clear-bottom black MPTs (MATRIX cat. #4324) by seeding 5000, 7500, 10000 cells/well 24 hrs before experiment. Plates were incubated with 40 μl/w of 0.625× membrane potential dye for 45-60 minutes at 37° C. or room temperature and measured at FLIPR instrument by injecting 10 μl/w of 5× antagonist (in the presence of 0.5% DMSO, as indicated) followed by 3-5 minutes fluorescence reading; then a second injection of 25 μl/w of 3× KCl in Standard Tyrode solution) was performed and fluorescence measured for further 3-4 minutes. In experiments with a single injection (agonist), plates were incubated with 20 μl/w of 1× dye and injected with 20 μl/w of 2× KCl in Standard Tyrode solution.
Kinetic data obtained from different well replicates were analyzed with FLIPR, Excel and Spotfire software, by calculating the Integral or Maximum-Minimum RFU values after the injection; the obtained means and standard deviations were utilized to create sigmoidal dose-response fits by GraphPad PRISM® or Spotfire software and to calculate EC50-IC50 values and Z′ factors.
FIG. 42. […]

[5] = target: T4, ShaI/KChIP (Drosophila melanogaster, UniProt P17971); assay: ShaI/KChIP FLIPR membrane potential assay, KCl depolarization; assay type: cell-based
T4 construct: expressed in transfected cells; subclone 18-13-20
T4 sequence (P17971 with tags, fused parts or gaps isoform P17971-1): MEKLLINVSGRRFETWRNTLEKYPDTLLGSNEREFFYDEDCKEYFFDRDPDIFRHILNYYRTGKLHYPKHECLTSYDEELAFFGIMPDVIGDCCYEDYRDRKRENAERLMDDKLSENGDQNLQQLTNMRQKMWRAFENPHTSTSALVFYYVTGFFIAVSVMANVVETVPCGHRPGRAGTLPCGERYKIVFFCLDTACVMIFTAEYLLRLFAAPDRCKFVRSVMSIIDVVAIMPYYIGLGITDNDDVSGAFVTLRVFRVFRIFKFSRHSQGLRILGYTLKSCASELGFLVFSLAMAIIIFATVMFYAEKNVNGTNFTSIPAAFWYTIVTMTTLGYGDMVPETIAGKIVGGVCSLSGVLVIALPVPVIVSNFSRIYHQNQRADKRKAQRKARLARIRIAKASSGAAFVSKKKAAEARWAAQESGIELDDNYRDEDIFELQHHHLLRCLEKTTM
Description: This assay uses two fluid additions to permit the detection of activators and antagonists in a single experiment (FIG. 17). In screening, test compounds are added in the first addition and allowed to incubate for three minutes. An activating dose of KCl is then introduced in the second addition and the fluorescence read for an additional three minutes. Controls are run for both additions.
Cells were dispensed in a 50 μl volume containing 7,500 cells into 384-well TC clear/black assay plates (Greiner 781091) using a Multidrop 384 dispenser, incubated at ambient temperature for one hour (to reduce edge effects), and incubated overnight at 37° C./5% CO2. The cells were assayed 18-24 hours after seeding, at which point they were just approaching confluency in the wells. Culture medium was removed by flicking and tapping it out of the plate, and cells were loaded with 20 ul/well of 1× blue membrane potential dye in assay buffer for 30 minutes at 25° C. After 30 minutes the assay plate was placed into the FLIPR and run using a two-addition protocol. The first addition (5×, 5 ul) contained 2.5% DMSO in assay buffer. The pipetting height was set at 15 and the speed 20. The plate was read for three minutes after this addition. The second addition (2×, 25 ul) was either assay buffer or 120 mM isometrically-substituted KCl (i.e., KCl substituted for NaCl on a 1:1 molar basis). The height was 20 and the speed 25. Aspirate speeds were set at the lowest values and no hold or expel volumes applied. The plate was read for an additional three minutes after the second addition. The exported statistics were typically configured as stat1=average of 190-200 (the interval just before the first addition) and stat2=maximum of 260-maximum allowed. Subtract bias was set at 1 and negative control correction was OFF. Z′ statistics (an index of “screenability”, Z′>0.5=single-pass screen) were calculated using the following formula: Z′=1−((3σmax+3σmin)/(Iμmax−μminI)).
FIG. 32: BIOMOL compounds—primary screening data. ScreenWorks screenshots showing primary FLIPR data for BIOMOL compound screening. ShaI/KChIP 20 cells were plated at 7500 cells/well in 384-well assay plates and screened the following day. Culture medium was removed by flicking the plates and the cells were loaded with 20 ul 1× membrane potential dye per well for 0.5 hours at 25° C. A two-addition protocol was used. The first addition was 5 ul 5× control or compound in 2.5% DMSO in assay buffer (0.5% [final]) read for 180 sec, and the second addition was 25 ul 2× control or 120 mM isometrically-substituted KCl in assay buffer (0-60 mM [final]) read for an additional 180 sec. Statistics were exported using the average of reads 180-200 and the maximum of reads 260-maximum allowed. Subtract bias was set at 1 and negative control correction was OFF. Control columns ½ and 23/24 are described starting on pg. 53 of this document. Inset: Screenshot of group averages for the control and compound wells highlighted in the primary data screen.
The 3222 unique members of the BioFocus SoftFocus Ion Channel Libraries #1-4 (#SF101-04) were screened in 384-well four-point mode against ShaI/KChIP at 10 uM in a combined activator and antagonist screen. The same FLIPR protocol was used as for the BIOMOL screening and was carried out over four non-consecutive days. The following compound preparation protocol was used to prepare screening plates: Briefly, ShaI-KChIP cells were seeded in 384-well plates at 7500 cells/well in 50 ul and incubated overnight at 37° C./5% CO2. The next day, culture medium was removed, 20 ul of 1×FMP dye was added, and the cell plate was incubated at 27° C. for 30 minutes. After incubation, the cell plate was placed into the Tetra and a two-addition protocol was used. The 1st addition was 5 μl of 5× compound (50 μM) with a three minute read. […] The 2nd addition was 25 ul of 2× activation buffer (120 mM isometric KCl substitution for NaCl) and read for an additional two minutes. […]

Which “block of SK2 channel currents” value [1] does the source give for `CN(C)CCC=C1c2ccccc2CCc2ccccc21` [amitriptyline] here?
The value was “micro-molar affinity”.

With `c1ccc(CC2=NCCN2)cc1` [tolazoline] as the molecule, how does the “rank order of potency (agonists)” value [2] read?
Its value is “naphazoline>octopamine>amitraz>clonidine>tolazoline”.

With `c1ccc2c(CC3=NCCN3)cccc2c1` [naphazoline] as the molecule, how does the “rank order of potency (agonists)” value [2] read?
The value was “naphazoline>octopamine>amitraz>clonidine>tolazoline”.

For `COC(=O)C1=C(C)NC(C)=C([N+](=O)[O-])C1c1ccccc1C(F)(F)F` (stereo not shown) [Bay K8644], which “inhibition of KCl depolarization” value [3] is on record?
The value was “dose dependent inhibition”.

With `COC(=O)C1=C(C)NC(C)=C(C(=O)OCCN(C)Cc2ccccc2)C1c1cccc([N+](=O)[O-])c1` (stereo not shown) [nicardipine] as the molecule, how does the “inhibition of KCl depolarization” value [3] read?
The value was “dose dependent inhibition”.

For `C=C[C@H]1CN2CC[C@@H]1CC2[C@@H](O)c1ccnc2ccc(OC)cc12` (stereo in doubt) [quinidine, (2-ethenyl-4-azabicyclo[2.2.2]oct-5-yl)-(6-methoxyquinolin-4-yl)-methanol], which “inhibition of KCl depolarization” value [3] is on record?
Its value is “dose dependent inhibition”.

For `Clc1cccc(Cl)c1N=C1NCCN1` [clonidine], which “rank order of potency (agonists)” value [2] is on record?
The value was “naphazoline>octopamine>amitraz>clonidine>tolazoline”.

With `Nc1c2c(nc3ccccc13)CCCC2` [tacrine] as the molecule, how does the “block of SK2 channel currents” value [1] read?
Its value is “micro-molar affinity”.

Which “block of SK2 channel currents” value [1] does the source give for `NC(=O)N1c2ccccc2C=Cc2ccccc21` [carbamazepine] here?
The value was “micro-molar affinity”.

With `CC[N+](CC)(CC)CC` [TEA, Tetraethylammonium] as the molecule, how does the “effect on KCl stimulation” value [4] read?
Its value is “blocking effect is visible”.

Which “inhibition of KCl depolarization” value [3] does the source give for `O=C(NCC1CCCCN1)c1cc(OCC(F)(F)F)ccc1OCC(F)(F)F` (stereo not shown) [Flecainide] here?
The value was “did not show any inhibition”.

Which “rank order of potency (agonists)” value [2] does the source give for `Cc1ccc(/N=C/N(C)/C=N/c2ccc(C)cc2C)c(C)c1` [amitraz] here?
The value was “naphazoline>octopamine>amitraz>clonidine>tolazoline”.

Which “inhibition of KCl depolarization” value [3] does the source give for `O=C(O)c1cccnc1Nc1cccc(C(F)(F)F)c1` [niflumic acid] here?
Its value is “dose dependent inhibition”.

With `[Cl-].[K+]` [KCl, reference compound] as the molecule, how does the EC50 ([5]; ShaI/KChIP 18-13 cells, isometrically-substituted KCl, fixed top response, read-out: EC50) read?
The EC50 was 30 mM.

And the EC50 ([5]; ShaI/KChIP 20 cells, three days, standard deviation 5 mM, read-out: EC50 mean)?
The EC50 was 36 mM.

What about the “Activator concentration (~EC80)” value ([4]; in Activation buffer, high-throughput screening parameter) of the same molecule?
The value was about 50 mM.
